# Measurements from US20230183219A1, “CONDENSED SUBSTITUTED HYDROPYRROLES AS ANTAGONISTS OF THE MUSCARINIC ACETYLCHOLINE RECEPTOR M4” (Vanderbilt University, priority 2020, published 2023).
# Target: T1, Human M4 (Homo sapiens, UniProt P08173)
# T1 construct: Human or rat M4 cDNA, along with the chimeric G protein Gqi5, were transfected into Chinese hamster ovary (CHO-K1) cells; expressed in transfected cells; host or cells: CHO-K1 (Chinese hamster ovary, ATCC), stably co-expressing Gqi5
# T1 sequence (P08173 1-479): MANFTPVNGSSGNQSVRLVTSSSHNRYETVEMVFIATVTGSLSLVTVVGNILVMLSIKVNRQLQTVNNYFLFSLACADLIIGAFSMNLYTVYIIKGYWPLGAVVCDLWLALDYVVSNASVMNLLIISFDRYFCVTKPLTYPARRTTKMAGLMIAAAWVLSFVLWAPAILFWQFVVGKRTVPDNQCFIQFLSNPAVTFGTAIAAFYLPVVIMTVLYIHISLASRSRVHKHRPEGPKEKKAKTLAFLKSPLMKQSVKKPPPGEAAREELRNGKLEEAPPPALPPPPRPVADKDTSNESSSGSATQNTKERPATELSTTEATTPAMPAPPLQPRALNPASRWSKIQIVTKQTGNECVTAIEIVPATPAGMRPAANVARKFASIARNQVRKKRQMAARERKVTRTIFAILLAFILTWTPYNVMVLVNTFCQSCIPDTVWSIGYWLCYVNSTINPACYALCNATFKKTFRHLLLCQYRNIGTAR
# Experiment: mAChR M4 cell-based functional assay (calcium flux, decrease of EC80 acetylcholine response)
# Conditions: for remaining activity at 30 µM: % ACh maximum at 30 μM, read-out: Human M4 Emin; for IC50: M4/Gqi5/CHO-K1 cells, decrease of response to EC80 acetylcholine
# How it was run: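 IC50 reflects inhibition of an EC80 acetylcholine calcium response, fitted by four-parameter logistic equation. Fluo-4-loaded M4/Gqi5 CHO-K1 cells received compound (10-point, 1:3 series) 2 s into the FDSS read, then EC20 acetylcholine at 143 s and EC80 at 268 s.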
Structure (SMILES),remaining activity at 30 µM [%],IC50 [nM]
"[2H]C([2H])(C1CCOCC1)N1C[C@H]2C[C@H](Nc3nnc(-c4cc(C)ccc4C)cc3C(F)(F)F)C[C@H]2C1 [Example 98, (3aR,5s,6aS)-N-(6-(2,5-dimethylphenyl)-4-(trifluoromethyl)pyridazin-3-yl)-2-((tetrahydro-2H-pyran-4-yl)methyl-d2)octahydro-cyclopenta[c]pyrrol-5-amine]",3,72.7
"[2H]C([2H])(C1CCOCC1)N1C[C@H]2C[C@H](Nc3nnc(-c4cc(F)ccc4C(F)(F)F)cc3C(F)(F)F)C[C@H]2C1 [Example 99, (3aR,5s,6aS)-N-(6-(5-fluoro-2-(trifluoromethyl)phenyl)-4-(trifluoromethyl)pyridazin-3-yl)-2-((tetrahydro-2H-pyran-4-yl)methyl-d2)octahydro-cyclopenta[c]pyrrol-5-amine]",2,54.7
"Fc1ccc(Cl)c(-c2cc(C(F)(F)F)c(N[C@H]3C[C@@H]4CN(Cc5ccccn5)C[C@@H]4C3)nn2)c1 [Example 100, (3aR,5s,6aS)-N-(6-(2-chloro-5-fluorophenyl)-4-(trifluoromethyl)pyridazin-3-yl)-2-(pyridin-2-ylmethyl)octahydro-cyclopenta[c]pyrrol-5-amine]",4,269
"Fc1ccccc1-c1cc(C(F)(F)F)c(N[C@H]2C[C@@H]3CN(Cc4ccccn4)C[C@@H]3C2)nn1 [Example 101, (3aR,5s,6aS)-N-(6-(2-fluorophenyl)-4-(trifluoro-methyl)pyridazin-3-yl)-2-(pyridin-2-ylmethyl)octahydro-cyclopenta[c]pyrrol-5-amine]",3,674
"FC(F)(F)c1cc(-c2ccccc2)nnc1N[C@H]1C[C@@H]2CN(Cc3ccccn3)C[C@@H]2C1 [Example 102, (3aR,5s,6aS)-N-(6-phenyl-4-(trifluoro-methyl)pyridazin-3-yl)-2-(pyridin-2-ylmethyl)octahydro-cyclopenta[c]pyrrol-5-amine]",4,350
"Cc1ccc(F)cc1-c1cc(C(F)(F)F)c(N[C@H]2C[C@@H]3CN(Cc4ccccn4)C[C@@H]3C2)nn1 [Example 103, (3aR,5s,6aS)-N-(6-(5-fluoro-2-methylphenyl)-4-(trifluoromethyl)pyridazin-3-yl)-2-(pyridin-2-ylmethyl)octahydro-cyclopenta[c]pyrrol-5-amine]",3,95.7
"Cc1cc(C)cc(-c2cc(C(F)(F)F)c(N[C@H]3C[C@@H]4CN(Cc5ccccn5)C[C@@H]4C3)nn2)c1 [Example 104, (3aR,5s,6aS)-N-(6-(3,5-dimethylphenyl)-4-(trifluoromethyl)pyridazin-3-yl)-2-(pyridin-2-ylmethyl)octahydro-cyclopenta[c]pyrrol-5-amine]",3,328
"Fc1cccc(-c2cc(C(F)(F)F)c(N[C@H]3C[C@@H]4CN(Cc5ccccn5)C[C@@H]4C3)nn2)c1 [Example 105, (3aR,5s,6aS)-N-(6-(3-fluorophenyl)-4-(trifluoro-methyl)pyridazin-3-yl)-2-(pyridin-2-ylmethyl)octahydro-cyclopenta[c]pyrrol-5-amine]",2,467
"Cn1cc2cc(-c3cc(C(F)(F)F)c(N[C@H]4C[C@@H]5CN(Cc6ccccn6)C[C@@H]5C4)nn3)ccc2n1 [Example 106, (3aR,5s,6aS)-N-(6-(2-methyl-2H-indazol-5-yl)-4-(trifluoromethyl)pyridazin-3-yl)-2-(pyridin-2-ylmethyl)octahydro-cyclopenta[c]pyrrol-5-amine]",4,274
"[2H]C([2H])(C1CCOCC1)N1C[C@H]2C[C@H](Nc3nnc(-c4ccccc4OC)cc3C(F)(F)F)C[C@H]2C1 [Example 107, (3aR,5s,6aS)-N-(6-(2-methoxyphenyl)-4-(trifluoromethyl)pyridazin-3-yl)-2-((tetrahydro-2H-pyran-4-yl)methyl-d2)octahydro-cyclopenta[c]pyrrol-5-amine]",3,26.4
"[2H]C([2H])(C1CCOCC1)N1C[C@H]2C[C@H](Nc3nnc(-c4ccccc4)cc3C(F)(F)F)C[C@H]2C1 [Example 108, (3aR,5s,6aS)-N-(6-phenyl-4-(trifluoromethyl)pyridazin-3-yl)-2-((tetrahydro-2H-pyran-4-yl)methyl-d2)octahydro-cyclopenta[c]pyrrol-5-amine]",3,41.2
"[2H]C([2H])(C1CCOCC1)N1C[C@H]2C[C@H](Nc3nnc(-c4cnn(C)c4)cc3C(F)(F)F)C[C@H]2C1 [Example 109, (3aR,5s,6aS)-N-(6-(1-methyl-1H-pyrazol-4-yl)-4-(trifluoro-methyl)pyridazin-3-yl)-2-((tetrahydro-2H-pyran-4-yl)methyl-d2)octahydro-cyclopenta[c]pyrrol-5-amine]",3,71.8
"[2H]C([2H])(C1CCOCC1)N1C[C@H]2C[C@H](Nc3nnc(-c4ccc(F)cc4C)cc3C(F)(F)F)C[C@H]2C1 [Example 110, (3aR,5s,6aS)-N-(6-(4-fluoro-2-methylphenyl)-4-(trifluoromethyl)pyridazin-3-yl)-2-((tetrahydro-2H-pyran-4-yl)methyl-d2)octahydro-cyclopenta[c]pyrrol-5-amine]",3,46.7
"[2H]C([2H])(C1CCOCC1)N1C[C@H]2C[C@H](Nc3nnc(-c4ccc5c(c4)ncn5C)cc3C(F)(F)F)C[C@H]2C1 [Example 111, (3aR,5s,6aS)-N-(6-(1-methyl-1H-benzo[d]imidazol-5-yl)-4-(trifluoro-methyl)pyridazin-3-yl)-2-((tetrahydro-2H-pyran-4-yl)methyl-d2)octahydro-cyclopenta[c]pyrrol-5-amine]",3,136
"FC(F)(F)c1cc(-c2ccc3ncsc3c2)nnc1N[C@H]1C[C@@H]2CN(CC3CCOCC3)C[C@@H]2C1 [Example 112, (3aR,5s,6aS)-N-(6-(benzo[d]thiazol-6-yl)-4-(trifluoromethyl)pyridazin-3-yl)-2-((tetrahydro-2H-pyran-4-yl)methyl)octahydro-cyclopenta[c]pyrrol-5-amine]",3,8.9
"Cc1cnc(F)cc1-c1cc(C(F)(F)F)c(N[C@H]2C[C@@H]3CN(CC4CCOCC4)C[C@@H]3C2)nn1 [Example 113, (3aR,5s,6aS)-N-(6-(2-fluoro-5-methylpyridin-4-yl)-4-(trifluoromethyl)pyridazin-3-yl)-2-((tetrahydro-2H-pyran-4-yl)methyl)octahydro-cyclopenta[c]pyrrol-5-amine]",3,6.1
"[2H]C([2H])([C@H]1CCCCO1)N1C[C@H]2C[C@H](Nc3nnc(-c4cc(C)ccc4C)cc3C(F)(F)F)C[C@H]2C1 [Example 114, (3aR,5s,6aS)-N-(6-(2,5-dimethylphenyl)-4-(trifluoro-methyl)pyridazin-3-yl)-2-(((R)-tetrahydro-2H-pyran-2-yl)methyl-d2)octahydro-cyclopenta[c]pyrrol-5-amine]",3,235
"[2H]C([2H])([C@@H]1CCOC1)N1C[C@H]2C[C@H](Nc3nnc(-c4cc(C)ccc4C)cc3C(F)(F)F)C[C@H]2C1 [Example 115, (3aR,5s,6aS)-N-(6-(2,5-dimethylphenyl)-4-(trifluoro-methyl)pyridazin-3-yl)-2-(((S)-tetrahydrofuran-3-yl)methyl-d2)octahydro-cyclopenta[c]pyrrol-5-amine]",3,176
"[2H]C([2H])([C@H]1CCOC1)N1C[C@H]2C[C@H](Nc3nnc(-c4cc(C)ccc4C)cc3C(F)(F)F)C[C@H]2C1 [Example 116, (3aR,5s,6aS)-N-(6-(2,5-dimethylphenyl)-4-(trifluoro-methyl)pyridazin-3-yl)-2-(((R)-tetrahydrofuran-3-yl)methyl-d2)octahydro-cyclopenta[c]pyrrol-5-amine]",3,266
"Cn1cnc2ccc(-c3cc(C(F)(F)F)c(N[C@H]4C[C@@H]5CN(Cc6ccccn6)C[C@@H]5C4)nn3)cc21 [Example 117, (3aR,5s,6aS)-N-(6-(1-methyl-1H-benzo[d]imidazol-6-yl)-4-(trifluoromethyl)pyridazin-3-yl)-2-(pyridin-2-ylmethyl)octahydro-cyclopenta[c]pyrrol-5-amine]",4,345
"[2H]C([2H])(C1CCOCC1)N1C[C@H]2C[C@H](Nc3nnc(-c4ccc(OC)cc4C)cc3C(F)(F)F)C[C@H]2C1 [Example 122, (3aR,5s,6aS)-N-(6-(4-methoxy-2-methylphenyl)-4-(trifluoromethyl)pyridazin-3-yl)-2-((tetrahydro-2H-pyran-4-yl)methyl-d2)octahydro-cyclopenta[c]pyrrol-5-amine]",3,33.2
